Key:
[1] = Biological distribution of Tc-99m complexes in rats (pentobarbital anesthesia); type: in vivo, Female Sprague-Dawley rats; details: average of 2 rats; for Blood, % Injected Dose/Gram Tissue / Brain, % Injected Dose/Gram Tissue / Heart, % Injected Dose/Gram Tissue: pentobarbital anesthesia; for Brain:Blood / Heart:Blood: ratio
Experimental: Distribution of the Tc-99m labeled compounds was evaluated in rats. Female Sprague-Dawley rats weighing 140 to 220 g (average 170 g) were anesthetized with sodium pentobarbital and were injected in a tail vein with from 0.05 to 10 mCi of the Tc-99m labeled complex in a volume of 0.2 to 0.5 ml. At least two rats were injected for each time point.
The animals were sacrificed at 5 and 30 minutes after injection and selected organs were removed; the tails were discharged to avoid interference from the injection site. The radioactivity in each organ was measured at a standard geometry with a […] sodium iodide scintillation detector adjusted for the 140 KeV emission of Tc-99m. The organs were also weighed to one hundredth of a gram and the activity was calculated as a percent of administered dose per gram.

[2] = Electrophoresis of Tc-99m complex (NaH2PO4, pH 4.5); type: physicochemical; details: 0.05 M NaH2PO4, pH 4.5, 300 volts, 30 min
[3] = 5 min after i.v. (tail vein) injection
[4] = 30 min after i.v. (tail vein) injection

## Tc-99m complex of 2-(2-Butylthio-2-methylpropylamino)-1-(2-mercapto-2-methylpropylamino)-3-methylbenzene [Example 53]
[1]; [3]
  Blood, % Injected Dose/Gram Tissue: 0.76 % Injected Dose/Gram Tissue
  Brain, % Injected Dose/Gram Tissue: 0.29 % Injected Dose/Gram Tissue
  Heart, % Injected Dose/Gram Tissue: 1.58 % Injected Dose/Gram Tissue
[1]; [4]
  Blood, % Injected Dose/Gram Tissue: 0.41 % Injected Dose/Gram Tissue
  Brain, % Injected Dose/Gram Tissue: 0.29 % Injected Dose/Gram Tissue
  Heart, % Injected Dose/Gram Tissue: 0.85 % Injected Dose/Gram Tissue
[1]; 5 min after i.v. injection
  Brain:Blood: 0.38
  Heart:Blood: 2.06
[1]; 30 min after i.v. injection
  Brain:Blood: 0.71
  Heart:Blood: 2.09
[2]
  Electrophoresis: neutral

Source: patent US5080884A, “Hydrocarbylphenyl diaminodithiol radionuclide complexes and their use in imaging” (Medi-Physics, Inc., priority 1991, dated 1992)
